{"source": "paper PMC5218480", "about": "(PLoS ONE, 2017)", "system": "MV-4-11 cells", "assay": "Gene expression microarray analysis (Affymetrix PrimeView) and GSEA", "format": "cell-based, human", "set-up": "RFU PODN (11730768_x_at) / Fold change /veh PODN (11730768_x_at) / RFU LINC00158 (11744669_a_at) / Fold change /veh LINC00158 (11744669_a_at) / RFU DUSP10 (11751237_a_at) / Fold change /veh DUSP10 (11751237_a_at) / RFU ID3 (11757404_x_at) / Fold change /veh ID3 (11757404_x_at) / RFU PLEKHG5 (11737974_s_at) / Fold change /veh PLEKHG5 (11737974_s_at) / RFU LRRC4B (11730491_at) / Fold change /veh LRRC4B (11730491_at) / RFU GIMAP4 (11747438_a_at) / Fold change /veh GIMAP4 (11747438_a_at) / RFU KRT8 (11758183_x_at) / Fold change /veh KRT8 (11758183_x_at) / RFU CNN1 (11734310_a_at) / Fold change /veh CNN1 (11734310_a_at) / RFU VPS37D (11726825_at) / Fold change /veh VPS37D (11726825_at) / RFU C10orf10 (11716522_x_at) / Fold change /veh C10orf10 (11716522_x_at) / RFU KIR2DL2 /// KIR2DL4 /// KIR2DL5A /// KIR2DL5B /// KIR2DS1 /// KIR2DS2 /// KIR2DS3 /// KIR2DS4 /// KIR3DL3 /// KIR3DL3 /// KIR3DS1 (11738374_at) / Fold change /veh KIR2DL2 /// KIR2DL4 /// KIR2DL5A /// KIR2DL5B /// KIR2DS1 /// KIR2DS2 /// KIR2DS3 /// KIR2DS4 /// KIR3DL3 /// KIR3DL3 /// KIR3DS1 (11738374_at) / RFU C1QL1 (11718748_at) / Fold change /veh C1QL1 (11718748_at) / RFU TMPRSS4 (11747572_a_at) / Fold change /veh TMPRSS4 (11747572_a_at) / RFU HAMP (11756126_x_at) / Fold change /veh HAMP (11756126_x_at) / RFU RNFT2 (11725882_a_at) / Fold change /veh RNFT2 (11725882_a_at) / RFU NR4A2 (11747474_a_at) / Fold change /veh NR4A2 (11747474_a_at) / RFU ABCC12 (11746883_a_at) / Fold change /veh ABCC12 (11746883_a_at) / RFU TMEM136 (11760407_x_at) / Fold change /veh TMEM136 (11760407_x_at) / RFU CLDN22 /// WWC2 (11732394_at) / Fold change /veh CLDN22 /// WWC2 (11732394_at) / RFU HLA-DPB1 (11760878_x_at) / Fold change /veh HLA-DPB1 (11760878_x_at) / RFU SPINT1 (11716480_a_at) / Fold change /veh SPINT1 (11716480_a_at) / RFU GAP43 (11754022_s_at) / Fold change /veh GAP43 (11754022_s_at) / RFU A4GNT (11735810_at) / Fold change /veh A4GNT (11735810_at) / RFU PRB3 (11715151_x_at) / Fold change /veh PRB3 (11715151_x_at) / RFU TUBB4B (11761932_at) / Fold change /veh TUBB4B (11761932_at) / RFU CAPN14 (11732068_a_at) / Fold change /veh CAPN14 (11732068_a_at) / RFU TMCC2 (11721928_a_at) / Fold change /veh TMCC2 (11721928_a_at) / RFU IRGQ (11745062_a_at) / Fold change /veh IRGQ (11745062_a_at) / RFU FAM174B (11720279_a_at) / Fold change /veh FAM174B (11720279_a_at) / RFU TMPRSS4 (11748680_a_at) / Fold change /veh TMPRSS4 (11748680_a_at) / RFU FAM212B (11763350_a_at) / Fold change /veh FAM212B (11763350_a_at) / RFU PLEKHG5 (11743358_a_at) / Fold change /veh PLEKHG5 (11743358_a_at) / RFU ZSCAN30 (11745921_a_at) / Fold change /veh ZSCAN30 (11745921_a_at) / RFU CMKLR1 (11741424_a_at) / Fold change /veh CMKLR1 (11741424_a_at) / RFU LOC101060620 /// MAPK8IP1 (11723275_at) / Fold change /veh LOC101060620 /// MAPK8IP1 (11723275_at) / RFU SPTSSB (11747773_x_at) / Fold change /veh SPTSSB (11747773_x_at) / RFU PRSS12 (11739890_at) / Fold change /veh PRSS12 (11739890_at) / RFU BIN1 (11741810_x_at) / Fold change /veh BIN1 (11741810_x_at) / RFU WNT11 (11732464_a_at) / Fold change /veh WNT11 (11732464_a_at) / RFU C10orf10 (11716521_a_at) / Fold change /veh C10orf10 (11716521_a_at) / RFU C5orf56 (11738089_at) / Fold change /veh C5orf56 (11738089_at) / RFU CYB561 (11721691_x_at) / Fold change /veh CYB561 (11721691_x_at) / RFU ANKRD19P (11752326_a_at) / Fold change /veh ANKRD19P (11752326_a_at) / RFU OR2T12 /// OR2T33 /// OR2T8 (11738714_s_at) / Fold change /veh OR2T12 /// OR2T33 /// OR2T8 (11738714_s_at) / RFU VCAN (11748164_a_at) / Fold change /veh VCAN (11748164_a_at) / RFU JSRP1 (11732532_at) / Fold change /veh JSRP1 (11732532_at) / RFU KRTAP10-11 (11738290_x_at) / Fold change /veh KRTAP10-11 (11738290_x_at) / RFU MYO3A (11730013_a_at) / Fold change /veh MYO3A (11730013_a_at) / RFU EBF3 (11725865_a_at) / Fold change /veh EBF3 (11725865_a_at) / RFU CAMK2N1 (11719241_x_at) / Fold change /veh CAMK2N1 (11719241_x_at) / RFU C5orf56 (11738088_a_at) / Fold change /veh C5orf56 (11738088_a_at) / RFU OLFML3 (11715873_a_at) / Fold change /veh OLFML3 (11715873_a_at) / RFU LOC100653217 /// NTM (11731650_a_at) / Fold change /veh LOC100653217 /// NTM (11731650_a_at) / RFU MAPK11 (11762145_a_at) / Fold change /veh MAPK11 (11762145_a_at) / RFU FIZ1 (11724087_x_at) / Fold change /veh FIZ1 (11724087_x_at) / RFU OASL (11726364_x_at) / Fold change /veh OASL (11726364_x_at) / RFU SOX15 (11748057_x_at) / Fold change /veh SOX15 (11748057_x_at) / RFU CD79A (11719716_a_at) / Fold change /veh CD79A (11719716_a_at) / RFU HIST1H1D (11736915_at) / Fold change /veh HIST1H1D (11736915_at) / RFU CASKIN2 (11723855_a_at) / Fold change /veh CASKIN2 (11723855_a_at) / RFU LOC730098 (11760151_x_at) / Fold change /veh LOC730098 (11760151_x_at) / RFU OR4N2 (11742367_at) / Fold change /veh OR4N2 (11742367_at) / RFU PRRT2 (11749266_a_at) / Fold change /veh PRRT2 (11749266_a_at) / RFU SNX32 (11753110_a_at) / Fold change /veh SNX32 (11753110_a_at) / RFU CDHR5 (11726645_a_at) / Fold change /veh CDHR5 (11726645_a_at) / RFU RCAN1 (11760418_a_at) / Fold change /veh RCAN1 (11760418_a_at) / RFU FAM167A (11723789_a_at) / Fold change /veh FAM167A (11723789_a_at) / RFU FAM26E (11764081_at) / Fold change /veh FAM26E (11764081_at) / RFU ISYNA1 (11749810_s_at) / Fold change /veh ISYNA1 (11749810_s_at) / RFU ACY1 (11761880_at) / Fold change /veh ACY1 (11761880_at) / RFU 11764098_at / Fold change /veh 11764098_at / RFU SAMD14 (11745864_x_at) / Fold change /veh SAMD14 (11745864_x_at) / RFU NPB (11741838_a_at) / Fold change /veh NPB (11741838_a_at) / RFU TMPRSS6 (11731388_a_at) / Fold change /veh TMPRSS6 (11731388_a_at) / RFU KRTAP10-2 (11738614_at) / Fold change /veh KRTAP10-2 (11738614_at) / RFU ARHGAP8 /// PRR5-ARHGAP8 (11727945_x_at) / Fold change /veh ARHGAP8 /// PRR5-ARHGAP8 (11727945_x_at) / RFU KRTAP5-7 /// NADSYN1 (11734609_at) / Fold change /veh KRTAP5-7 /// NADSYN1 (11734609_at) / RFU RASL12 (11751679_a_at) / Fold change /veh RASL12 (11751679_a_at) / RFU CDKN2B (11736163_a_at) / Fold change /veh CDKN2B (11736163_a_at) / RFU PRF1 (11729649_at) / Fold change /veh PRF1 (11729649_at) / RFU, ZNF638 /// ZNF638-IT1 / Fold change vs veh, ZNF638 /// ZNF638-IT1 / RFU, PANK3 / Fold change vs veh, PANK3 / RFU, SH3YL1 / Fold change vs veh, SH3YL1 / RFU, ZEB2 / Fold change vs veh, ZEB2 / RFU, NRIP1 / Fold change vs veh, NRIP1 / RFU, PTTG1IP / Fold change vs veh, PTTG1IP / RFU, CAPN2 / Fold change vs veh, CAPN2 / RFU, MED14 / Fold change vs veh, MED14 / RFU, SNORA58 / Fold change vs veh, SNORA58 / RFU, C1orf63 / Fold change vs veh, C1orf63 / RFU, LRRFIP1 / Fold change vs veh, LRRFIP1 / RFU, NDUFAF7 / Fold change vs veh, NDUFAF7 / RFU, SLC12A2 / Fold change vs veh, SLC12A2 / RFU, IBTK / Fold change vs veh, IBTK / RFU, ESF1 / Fold change vs veh, ESF1 / Fold change vs veh, TMEM50B / RFU, TAOK1 / Fold change vs veh, TAOK1 / RFU, ACBD3 / Fold change vs veh, ACBD3 / RFU, TMA16 / Fold change vs veh, TMA16 / RFU, RWDD3 / Fold change vs veh, RWDD3 / RFU, BCAT1 / Fold change vs veh, BCAT1 / RFU, EDEM3 / Fold change vs veh, EDEM3 / RFU, TMEM33 / Fold change vs veh, TMEM33 / RFU, WDR75 / Fold change vs veh, WDR75 / RFU, AHCTF1 / Fold change vs veh, AHCTF1 / RFU, TFRC / Fold change vs veh, TFRC / RFU, ZDHHC17 / Fold change vs veh, ZDHHC17 / RFU, NOM1 / Fold change vs veh, NOM1 / RFU, ARL8B / Fold change vs veh, ARL8B / RFU, ZBTB11 / Fold change vs veh, ZBTB11 / RFU, TAMM41 / Fold change vs veh, TAMM41 / RFU, KIAA1704 /// LOC100996395 / Fold change vs veh, KIAA1704 /// LOC100996395 / RFU, ING1 / Fold change vs veh, ING1 / RFU, TRMT61B / Fold change vs veh, TRMT61B / RFU, FUBP3 / Fold change vs veh, FUBP3 / RFU, TP53 / Fold change vs veh, TP53 / RFU, TNKS2 / Fold change vs veh, TNKS2 / RFU, ZFP14 / Fold change vs veh, ZFP14 / RFU, ACTR2 / Fold change vs veh, ACTR2 / RFU, PPP3R1 / Fold change vs veh, PPP3R1 / RFU, PIK3R1 / Fold change vs veh, PIK3R1 / RFU, HNRNPA1 / Fold change vs veh, HNRNPA1 / RFU, RNF170 / Fold change vs veh, RNF170 / RFU, ZNF28 / Fold change vs veh, ZNF28 / RFU, RNGTT / Fold change vs veh, RNGTT / RFU, OGT / Fold change vs veh, OGT / RFU, BRD1 / Fold change vs veh, BRD1 / RFU, MARS / Fold change vs veh, MARS / RFU, ZNF655 / Fold change vs veh, ZNF655 / RFU, FAHD1 / Fold change vs veh, FAHD1 / RFU, BDP1 / Fold change vs veh, BDP1 / RFU, LRRCC1 / Fold change vs veh, LRRCC1 / RFU, ARID1A / Fold change vs veh, ARID1A / RFU, ZNF146 / Fold change vs veh, ZNF146 / RFU, ZNF330 / Fold change vs veh, ZNF330 / RFU, GPN3 / Fold change vs veh, GPN3 / RFU, C9orf123 / Fold change vs veh, C9orf123 / RFU, N4BP2L2 / Fold change vs veh, N4BP2L2 / RFU, ARFIP1 / Fold change vs veh, ARFIP1 / RFU, FAM179B / Fold change vs veh, FAM179B / RFU, BCL10 / Fold change vs veh, BCL10 / RFU, UHRF1BP1L / Fold change vs veh, UHRF1BP1L / RFU, BET1 / Fold change vs veh, BET1 / RFU, CNOT2 / Fold change vs veh, CNOT2 / RFU, ZNF268 / Fold change vs veh, ZNF268 / Fold change vs veh, ZNF507 / RFU, DGCR2 / Fold change vs veh, DGCR2 / RFU, WDSUB1 / Fold change vs veh, WDSUB1 / Fold change vs veh, HSP90B1 /// MIR3652 / RFU, ADSS / Fold change vs veh, ADSS / RFU, GK / Fold change vs veh, GK / RFU, ZNF148 / Fold change vs veh, ZNF148 / RFU, TAF9 / Fold change vs veh, TAF9 / RFU, SLC1A5 / Fold change vs veh, SLC1A5 / RFU, SLMO2 / Fold change vs veh, SLMO2 / RFU, ABCC4 / Fold change vs veh, ABCC4 / RFU, LOC101060439 /// RAP1B / Fold change vs veh, LOC101060439 /// RAP1B / RFU, RFX7 / Fold change vs veh, RFX7 / RFU, GTPBP10 / Fold change vs veh, GTPBP10 / RFU, CNEP1R1 / Fold change vs veh, CNEP1R1 / RFU, BIVM-ERCC5 /// ERCC5 / Fold change vs veh, BIVM-ERCC5 /// ERCC5 / RFU, ILF3 / Fold change vs veh, ILF3 / RFU 11762660_at / Fold change /veh 11762660_at / RFU VCAN (11757783_s_at) / Fold change /veh VCAN (11757783_s_at) / RFU DDX43 (11728927_at) / Fold change /veh DDX43 (11728927_at) / RFU KRT8 (11758188_x_at) / Fold change /veh KRT8 (11758188_x_at) / RFU NKD1 (11759106_at) / Fold change /veh NKD1 (11759106_at) / RFU SRD5A1 (11742802_a_at) / Fold change /veh SRD5A1 (11742802_a_at) / RFU TPSAB1 /// TPSB2 (11721975_s_at) / Fold change /veh TPSAB1 /// TPSB2 (11721975_s_at) / RFU GSTM3 (11746129_a_at) / Fold change /veh GSTM3 (11746129_a_at) / RFU IL23R (11737362_x_at) / Fold change /veh IL23R (11737362_x_at) / RFU TMEM51 (11727254_a_at) / Fold change /veh TMEM51 (11727254_a_at) / RFU PIWIL2 (11732686_x_at) / Fold change /veh PIWIL2 (11732686_x_at) / RFU ORM1 (11744905_x_at) / Fold change /veh ORM1 (11744905_x_at) / RFU CCDC152 (11743942_at) / Fold change /veh CCDC152 (11743942_at) / RFU ECM1 (11717891_a_at) / Fold change /veh ECM1 (11717891_a_at) / RFU IL23R (11748794_a_at) / Fold change /veh IL23R (11748794_a_at) / RFU TNFAIP8L3 (11732012_x_at) / Fold change /veh TNFAIP8L3 (11732012_x_at) / RFU MBOAT4 (11741988_at) / Fold change /veh MBOAT4 (11741988_at) / RFU 11764193_at / Fold change /veh 11764193_at / RFU TMEM53 (11763286_at) / Fold change /veh TMEM53 (11763286_at) / RFU MAGEB2 (11727129_at) / Fold change /veh MAGEB2 (11727129_at) / RFU TMEM200A (11744735_a_at) / Fold change /veh TMEM200A (11744735_a_at) / RFU CCDC152 (11751479_a_at) / Fold change /veh CCDC152 (11751479_a_at) / RFU FAM211A (11726209_a_at) / Fold change /veh FAM211A (11726209_a_at) / RFU RGS16 (11746705_a_at) / Fold change /veh RGS16 (11746705_a_at) / RFU VCAN (11755009_s_at) / Fold change /veh VCAN (11755009_s_at) / RFU RHOB (11743442_s_at) / Fold change /veh RHOB (11743442_s_at) / RFU RGS16 (11720943_a_at) / Fold change /veh RGS16 (11720943_a_at) / RFU RGS16 (11720944_at) / Fold change /veh RGS16 (11720944_at) / RFU, VPS4B / Fold change vs veh, VPS4B / RFU, CREB1 / Fold change vs veh, CREB1 / RFU, DNAJC13 / Fold change vs veh, DNAJC13 / RFU, GNAQ / Fold change vs veh, GNAQ / RFU, CDK5R1 / Fold change vs veh, CDK5R1 / RFU, ZRANB3 / Fold change vs veh, ZRANB3 / RFU, CUL4A / Fold change vs veh, CUL4A / RFU, CCNY / Fold change vs veh, CCNY / RFU, UFL1 / Fold change vs veh, UFL1 / RFU, COG3 / Fold change vs veh, COG3 / RFU, DIAPH2 / Fold change vs veh, DIAPH2 / RFU, SKA2 / Fold change vs veh, SKA2 / RFU, AFF3 / Fold change vs veh, AFF3 / RFU, LMF1 / Fold change vs veh, LMF1 / RFU, IPO11 / Fold change vs veh, IPO11 / RFU, DFFB / Fold change vs veh, DFFB / RFU, FOXP1 / Fold change vs veh, FOXP1 / RFU, CARD8 / Fold change vs veh, CARD8 / RFU, STRN3 / Fold change vs veh, STRN3 / RFU, ADK / Fold change vs veh, ADK / RFU, RASSF2 / Fold change vs veh, RASSF2 / RFU, WIPF1 / Fold change vs veh, WIPF1 / RFU, LARP1B / Fold change vs veh, LARP1B / RFU, RASA1 / Fold change vs veh, RASA1 / RFU, RB1 / Fold change vs veh, RB1 / RFU, PPFIA1 / Fold change vs veh, PPFIA1 / RFU, MAT2A / Fold change vs veh, MAT2A / RFU, CCT5 / Fold change vs veh, CCT5 / RFU, WDR92 / Fold change vs veh, WDR92 / RFU, CUX1 / Fold change vs veh, CUX1 / RFU, TTC7A / Fold change vs veh, TTC7A / RFU, TMEM135 / Fold change vs veh, TMEM135 / RFU, DEPTOR / Fold change vs veh, DEPTOR / RFU, CPM / Fold change vs veh, CPM / RFU, DNAJB6 / Fold change vs veh, DNAJB6 / RFU, CACNA2D3 / Fold change vs veh, CACNA2D3 / RFU, DTX4 / Fold change vs veh, DTX4 / RFU, TFCP2 / Fold change vs veh, TFCP2 / RFU, GMCL1 /// GMCL1P1 / Fold change vs veh, GMCL1 /// GMCL1P1 / RFU, AEBP2 / Fold change vs veh, AEBP2 / RFU, SNHG1 /// SNORD22 /// SNORD25 /// SNORD26 /// SNORD27 /// SNORD28 /// SNORD29 /// SNORD31 / Fold change vs veh, SNHG1 /// SNORD22 /// SNORD25 /// SNORD26 /// SNORD27 /// SNORD28 /// SNORD29 /// SNORD31 / Fold change (Aza/veh), C12orf56 (ProbeSet 11735607_a_at) / Fold change (ACY-1035/veh), C12orf56 (ProbeSet 11735607_a_at) / Fold change (Aza/veh), FGFR1OP (ProbeSet 11751329_s_at) / Fold change (ACY-1035/veh), FGFR1OP (ProbeSet 11751329_s_at) / Fold change (Aza/veh), VPS36 (ProbeSet 11739960_a_at) / Fold change (ACY-1035/veh), VPS36 (ProbeSet 11739960_a_at) / RFU SYPL1 (11715823_x_at) / Fold change /veh SYPL1 (11715823_x_at) / RFU IGFBP7 (11715501_s_at) / Fold change /veh IGFBP7 (11715501_s_at) / RFU REEP3 (11722064_at) / Fold change /veh REEP3 (11722064_at) / RFU IGLL1 (11728026_x_at) / Fold change /veh IGLL1 (11728026_x_at): dose or concentration left out as unconfirmed", "details": "MV-4-11 cells, 48 hours", "data": [{"smiles": "Nc1ncn([C@@H]2O[C@H](CO)[C@@H](O)[C@H]2O)c(=O)n1", "note": "[azacitidine]", "values": [{"measurement": "RFU MYO3A (11730013_a_at)", "value": 81.22, "unit": "RFU"}]}]}
